In patent US20080064663A1, “Melt processing of phosphoroamido(di)thioate insecticides” (priority 2006, published 2008):

Assay: Processing of acephate melt in oxygen free atmosphere: degradation
Format: physicochemical
Method: In some embodiments, the acephate-containing composition can be processed for more than 30 minutes without substantially any detectable degradation.

In the case of COP(=O)(NC(C)=O)SC (centres unmarked) [acephate], the “reduction of the acephate stability during storage” value (after processing in molten state at 90° C. to 100° C. for 15 to 30 minutes under an effectively oxygen free atmosphere) was “without any reduction” and the “degradation of the acephate processed in a molten state” value (molten state at 90° C. to 100° C. for 15 minutes to 30 minutes under an effectively oxygen free atmosphere) was “without substantial or detectable degradation”.
